Literature values as cited in patent US8673587B2, “Methods for identifying allosteric and other novel acyl-coenzyme A:cholesterol acyltransferase inhibitors” (Trustees of Dartmouth College, priority 2010, dated 2014).

Test system: lysohpospholipid acyltransferase (LPAT)
Details: cited from earlier work

CCCCCCCCCCC(C)(C)C(=O)Nc1c(OC)cc(OC)cc1OC [CI976]
inhibition of LPAT: has been shown to inhibit
